Test results from patent US12110284B2, “Fasoracetam crystalline forms” (The Children's Hospital of Philadelphia, priority 2018, dated 2024).
Like-named read-outs stand apart in the source and are kept apart here.

Legend:
[1] = Storage of the anhydrate at ambient conditions, conversion tracked daily via XRPD; assay type: physicochemical; conditions: 1-week period
[2] = assay type: physicochemical; conditions: for first onset of weight loss / weight loss continues up to / water loss (initial weight loss): TGA; for first onset of weight loss / weight loss continues up to: nitrogen flow; for water loss (initial weight loss): equivalents of water
Method: TGA measurements were carried out on a METTLER TOLEDO TGA/SDTA 851e. Samples were placed in open aluminum oxide crucible. All experiments were performed under nitrogen flow.
A thermal analysis of all forms was performed in order to characterize the fasoracetam forms and to identify the stability of different forms. TGA measurements (FIG. 21) clearly mark the difference between the hydrated and anhydrated form. […] The weight loss continues up to 185° C. When the temperature is increased further, degradation occurs, starting around 260° C. The initial loss corresponds to 1.1 equivalent of water, as expected for a 1:1 stoichiometric hydrate. The slight deviation from the ideal stoichiometric ratio can be attributed to the crystallization conditions (the bulk material was obtained from an aqueous solution and the water remaining on the crystal surface or trapped between crystals is likely to cause the deviation observed). […] Analogous to Form I, degradation occurs which starts around 268° C. The observed water loss here is 0.9 equivalent, which is expected for a stoichiometric hydrate.

[3] = DSC enthalpy of fusion of fasoracetam forms; assay type: physicochemical
Method: DSC measurements were performed on a DSC 821 METTLER TOLEDO under continuous nitrogen flow. Perforated aluminium crucibles were used for analysis. Onsets were determined by manually constructing a tangent to the peak and a prolongation of the baseline. Total enthalpies were calculated by manual peak integration using a linear interpolation between the initial and final temperatures of integration. To obtain the normalized enthalpy, the total enthalpy was divided by the total sample mass. Ramp rates were typically done at 5° C./minute Using Burger's Heat of Fusion rule for both hydrated forms (Table 6), they should be monotropically related. Because both hydrates were obtained from different solvents (water and methanol for Forms I and II, respectively), a slurrying experiment where both vials were seeded with the opposite hydrate was performed and left under these conditions for 1 week.

[4] = Hygroscopicity of the solid form; assay type: physicochemical
Method: In further embodiments of the disclosure, R-fasoracetam anhydrate is provided. […] This lack of water of crystallization is a characterizing feature of the anhydrate of R-fasoracetam with respect to Form I or Form II. FIG. 13 is an XRPD pattern of the anhydrate and any one or more of the peaks in that XRPD pattern may be used to characterize the anhydrate. Thus, one or more peaks at about 8.9°2θ, about 13.1°2θ, about 15.2°2θ, about 17.8°2θ, about 18.7°2θ, about 20.3°2θ, and about 22.7°2⊖ may be used to characterize the anhydrate form of R-fasoracetam. The anhydrate has an onset melting temperature at about 94° C. Thus, in another embodiment, an onset melting point of about 94° C. together with one or more peaks at about 8.9°2θ, about 13.1°2θ, about 15.2°2θ, about 17.8°2θ, about 18.7°2θ, about 20.3°2θ, and about 22.7°2⊖ may be used to characterize R-fasoracetam anhydrate. R-fasoracetam anhydrate may be further characterized by a diffraction pattern substantially the same as that of FIG. 13. A DSC thermogram of R-fasoracetam anhydrate appears in FIG. 25. The ramp rate was at 10° C. per minute. The R-fasoracetam anhydrate being hygroscopic, the sample in FIG. 25 was obtained by keeping R-fasoracetam monohydrate Form I under vacuum for a prolonged period at a temperature of 65° C.

[5] = Slurrying experiment of both hydrates seeded with the opposite hydrate, XRPD analysis; assay type: physicochemical; conditions: water and methanol slurries seeded with the opposite hydrate, 1 week
Method: Using Burger's Heat of Fusion rule for both hydrated forms (Table 6), they should be monotropically related. Because both hydrates were obtained from different solvents (water and methanol for Forms I and II, respectively), a slurrying experiment where both vials were seeded with the opposite hydrate was performed and left under these conditions for 1 week.

[6] = cited from earlier work
mGluRs = conditions: in vitro; cited from earlier work

SMILES	conversion of solid form on storage [1]	degradation starts [2]	first onset of weight loss [2]	Enthalpy of Fusion (ΔHfus, J/g) [3] [J/g]	hygroscopicity [4]	weight loss continues up to [2] [°C]	water loss (initial weight loss) [2] [equivalent]	Enthalpy of Fusion (ΔHfus, J/g) ([3]; listed as Fasoracetam hydrate II) [J/g]	solid form stability in slurry [5]	treatment of further disorders ([6]; subjects having ADHD and 22q11.2 Deletion Syndrome, anxiety, conduct disorder, Tourette's syndrome)	treatment of ADHD ([6]; subjects having a genetic alteration in an mGluR network gene, clinical trial)	activity against mGluRs (mGluRs)	Enthalpy of Fusion (ΔHfus, J/g) ([3]; listed as Fasoracetam hydrate I) [J/g]
O=C1CC[C@H](C(=O)N2CCCCC2)N1 [anhydrate, R-fasoracetam anhydrate]	conversion to the stable hydrate occurs at ambient conditions over a 1-week period	around 260 °C	no particular weight loss up until degradation	-76.7	hygroscopic	–	–	–	–	–	–	–	–
O=C1CC[C@H](C(=O)N2CCCCC2)N1 [Form II, R-fasoracetam monohydrate Form II]	–	around 268 °C	41 °C	–	–	183	0.9	-79.0	complete solution mediated polymorphic transition from Form II to Form I	–	–	–	–
O=C1CC[C@H](C(=O)N2CCCCC2)N1 [fasoracetam, R-fasoracetam]	–	–	–	–	–	–	–	–	–	successful	successfully treated	nonselective activator against all classes of mGluRs	–
O=C1CC[C@H](C(=O)N2CCCCC2)N1 [Form I, R-fasoracetam monohydrate Form I, reference compound]	–	around 260 °C	41 °C	–	–	185	1.1	–	–	–	–	–	-120.9
